Data from PubChem BioAssay (NCI).
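Grown in 96-well plates, cells were treated for 48 hours with each compound at five concentrations. Insufficient inhibition: endpoint recorded as highest concentration tested. At the GI50, growth is halved. TGI is the concentration that stops growth completely.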

Columns and labels:
Experiment in all cases: DTP human tumour cell line panel, 48 h
[1] = test system: EKVX NSCLC
[2] = test system: HL-60(TB) leukemia
[3] = test system: SK-MEL-28 melanoma
[4] = test system: MDA-MB-435
[5] = test system: TK-10 renal
[6] = test system: A498 renal
[7] = test system: MDA-MB-231 breast
[8] = test system: 786-0 renal
[9] = test system: SNB-19 CNS
[10] = test system: CCRF-CEM leukemia
[11] = test system: NCI-H23 lung
[12] = test system: A549 NSCLC
[13] = test system: NCI-H226 lung
[14] = test system: HOP-92 NSCLC
[15] = test system: OVCAR-3 ovarian
[16] = test system: MCF7 breast
[17] = test system: SF-295 CNS
[18] = test system: SN12C renal
[19] = test system: CAKI-1 renal
[20] = test system: HT29 colon
[21] = test system: MOLT-4 leukemia
[22] = test system: SK-MEL-2 melanoma
[23] = test system: IGROV1 ovarian
[24] = test system: SF-268 CNS
[25] = test system: NCI-H460 lung
[26] = test system: KM12 colon
[27] = test system: M14 melanoma
[28] = test system: SF-539 CNS
[29] = test system: RXF 393 renal
[30] = test system: K-562 leukemia
[31] = test system: ACHN renal
[32] = test system: SK-OV-3 ovarian
[33] = test system: HCC-2998 colon
[34] = test system: OVCAR-4 ovarian
[35] = test system: OVCAR-8 ovarian
[36] = test system: BT-549 breast
[37] = test system: T-47D breast
[38] = test system: MALME-3M melanoma
[39] = test system: HOP-62 NSCLC
[40] = test system: NCI-H522 lung
[41] = test system: SK-MEL-5 melanoma
[42] = test system: MDA-MB-468 breast
[43] = test system: OVCAR-5 ovarian
[44] = test system: UACC-257 melanoma
[45] = test system: COLO 205 colon
[46] = test system: SR leukemia
[47] = test system: UACC-62 melanoma
[48] = test system: UO-31 renal
[49] = test system: SW-620 colon
[50] = test system: HCT-15 colon
[51] = test system: HS 578T breast
[52] = test system: HCT-116 colon
[53] = test system: U251 CNS

`COc1ccc(N=Nc2c(N)nn3c(N)c(C#N)c(-c4ccccc4)nc23)cc1` gave a GI50 [1] of 8.82 µM, a TGI [1] of over 100 µM and a GI50 [2] of over 100 µM. It also gave a TGI [2] of over 100 µM, a GI50 [3] of over 100 µM and a TGI [3] of over 100 µM. For the same compound, the GI50 [4] was over 100 µM, the TGI [4] was over 100 µM and the GI50 [5] was 5.88 µM. For the same compound, the TGI [5] was over 100 µM, the GI50 [6] was over 100 µM and the TGI [6] was over 100 µM. For the same compound, the GI50 [7] was 3.66 µM, the TGI [7] was 50.5 µM and the GI50 [8] was 12.8 µM. For the same compound, the TGI [8] was over 100 µM, the GI50 [9] was 5.06 µM and the TGI [9] was 44.1 µM. For the same compound, the GI50 [10] was over 100 µM, the TGI [10] was over 100 µM and the GI50 [11] was 5.05 µM. The TGI [11] was over 100 µM, the GI50 [12] was over 100 µM and the TGI [12] was over 100 µM. It also gave a GI50 [13] of 2.56 µM, a TGI [13] of 24.8 µM and a GI50 [14] of 2.65 µM. The TGI [14] was 52.6 µM, the GI50 [15] was 4.18 µM and the TGI [15] was over 100 µM. The GI50 [16] was 1.89 µM, the TGI [16] was over 100 µM and the GI50 [17] was 4.03 µM. It also gave a TGI [17] of over 100 µM, a GI50 [18] of 5.8 µM and a TGI [18] of over 100 µM. The GI50 [19] was 4.58 µM, the TGI [19] was over 100 µM and the GI50 [20] was over 100 µM. The TGI [20] was over 100 µM, the GI50 [21] was over 100 µM and the TGI [21] was over 100 µM. For the same compound, the GI50 [22] was 16.6 µM, the TGI [22] was over 100 µM and the GI50 [23] was 2.6 µM. The TGI [23] was over 100 µM, the GI50 [24] was 5.88 µM and the TGI [24] was over 100 µM. The GI50 [25] was 4.06 µM, the TGI [25] was over 100 µM and the GI50 [26] was over 100 µM. It also gave a TGI [26] of over 100 µM, a GI50 [27] of over 100 µM and a TGI [27] of over 100 µM. It also gave a GI50 [28] of 3.26 µM, a TGI [28] of 18.6 µM and a GI50 [29] of 3.17 µM. The TGI [29] was 12 µM, the GI50 [30] was over 100 µM and the TGI [30] was over 100 µM. It also gave a GI50 [31] of 4.08 µM, a TGI [31] of over 100 µM and a GI50 [32] of 6.04 µM. It also gave a TGI [32] of over 100 µM, a GI50 [33] of over 100 µM and a TGI [33] of over 100 µM. For the same compound, the GI50 [34] was 2.78 µM, the TGI [34] was 29.3 µM and the GI50 [35] was 4.61 µM. It also gave a TGI [35] of over 100 µM, a GI50 [36] of 4.29 µM and a TGI [36] of over 100 µM. For the same compound, the GI50 [37] was 2.75 µM, the TGI [37] was over 100 µM and the GI50 [38] was 5.46 µM. The TGI [38] was over 100 µM, the GI50 [39] was 3.7 µM and the TGI [39] was 41.5 µM. For the same compound, the GI50 [40] was 6.25 µM, the TGI [40] was over 100 µM and the GI50 [41] was 9.02 µM. For the same compound, the TGI [41] was over 100 µM, the GI50 [42] was 4.07 µM and the TGI [42] was over 100 µM. The GI50 [43] was over 100 µM, the TGI [43] was over 100 µM and the GI50 [44] was over 100 µM. It also gave a TGI [44] of over 100 µM, a GI50 [45] of over 100 µM and a TGI [45] of over 100 µM. It also gave a GI50 [46] of over 100 µM, a TGI [46] of over 100 µM and a GI50 [47] of 20.9 µM. For the same compound, the TGI [47] was over 100 µM, the GI50 [48] was 8.22 µM and the TGI [48] was over 100 µM. For the same compound, the GI50 [49] was over 100 µM, the TGI [49] was over 100 µM and the GI50 [50] was over 100 µM. For the same compound, the TGI [50] was over 100 µM, the GI50 [51] was 3 µM and the TGI [51] was 65 µM. For the same compound, the GI50 [52] was over 100 µM, the TGI [52] was over 100 µM and the GI50 [53] was 3.94 µM. The TGI [53] was over 100 µM.
